Test results taken from patent US7410974B2, “Halogenated Quinazolinyl nitrofurans as antibacterial agents” (Ulysses Pharmaceutical Products, Inc., priority 2003, dated 2008).
≈ marks a conversion by molar mass, not a printed value. Like-named read-outs stand apart in the source and are kept apart here.

Key:
[1] = test system: S. epidermidis ATCC 12228; test: MIC broth microdilution (NCCLS); type: cell-based, Staphylococcus epidermidis; details: Staphylococcus epidermidis, ATCC12228; S. epidermidis ATCC 12228; read-out: MIC
Procedure, shortened: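 Susceptibility by NCCLS microdilution: checked inoculum 10^5-10^6 CFU/ml, 24 h at 35° C, and growth assessed at 650 nm and by eye. Haemophilus was tested in HTM medium and Listeria with laked horse blood, each incubated under 5% CO2.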

[2] = test system: S. saprophyticus ATCC 15305; test: MIC broth microdilution (NCCLS); type: cell-based, Staphylococcus saprophyticus; details: Staphylococcus saprophyticus, ATCC15305; S. saprophyticus ATCC 15305; read-out: MIC
Procedure, shortened: (§1)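 NCCLS broth microdilution; inoculum 10^5-10^6 CFU/ml; 2-fold serial dilutions; 35° C, 24 h; A650 plus visual read. Media: MHBCA (S. saprophyticus, E. faecium), MHBCA + 2% laked horse blood (Listeria), HTM (Haemophilus), the last two under 5% CO2.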

E. faecalis ATCC 29212 = test: MIC broth microdilution (NCCLS); type: cell-based, Enterococcus faecalis; details: E. faecalis ATCC 29212
E. faecium ATCC 35667 = test: MIC broth microdilution (NCCLS); type: cell-based, Enterococcus faecium; details: Enterococcus faecium, ATCC35667, E. faecium ATCC 35667; read-out: MIC
Procedure, shortened: as §1

S. typhimurium ATCC14028 = test: MIC broth microdilution (NCCLS); type: cell-based, Salmonella typhimurium; details: Salmonella enterica; S. typhimurium ATCC14028; read-out: MIC
Procedure: (§2) Minimal Inhibitory Concentration (MIC) Determination. Bacteria (primary strain panel, TABLE 1). Susceptibility tests were performed following the recommendations from the National Committee for Clinical Standards (NCCLS). The MICs were determined by a broth microdilution technique using a final volume of 100 μl of cation-adjusted Mueller Hinton Broth (MHBCA) and a bacterial inoculum of 10^5-10^6 Colony Forming Units (CFU)/ml. The inocula were verified and precisely determined by applying 10-μl drops of 10-fold dilutions onto Triptic Soy Agar plates. The CFU were counted after an incubation of 24 h at 35° C. Any experiment showing an inoculum that was more or less than 10^5-10^6 CFU/ml was rejected. Control antibiotics and test compounds were prepared at a concentration equivalent to 2-fold the highest desired final concentration. Compounds were then diluted directly in the 96-well microtiter plates by serial 2-fold dilutions using a multichannel pipette. Microtiter plates were incubated during 24 h at 35° C. and growth was recorded by using a microtiterplate reader at 650 nm as well as by visual observation. The MIC was defined as the lowest concentration of compound yielding no visible growth. […] Fastidious bacteria. The medium used for Listeria monocytogenes, Neisseria meningitidis, and Campylobacter jejuni was MHBCA containing 2% laked horse blood. The medium used for Haemophilus influenzae and Branhamella (Moraxella) catarrhalis was HTM as recommended by the NCCLS. Cultures of these fastidious bacteria were incubated at 35° C. in a 5% CO2 atmosphere. […] The medium used for Bacteroides fragilis was Wilkins Chalgren broth and growth was allowed under an anaerobic atmosphere at 35° C. for 48 hours.

MRSA strain Sa211c = test: MIC broth microdilution, antibiotic resistant strain panel; type: cell-based, Staphylococcus aureus; details: Staphylococcus aureus; multi-resistant MRSA strain Sa211c; read-out: MIC
Procedure, shortened: (§3)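 MHBCA, 10^5-10^6 CFU/ml, 2-fold serial dilutions, 24 h at 35° C. Growth read at 650 nm and visually. MIC = lowest concentration with no visible growth.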

MRSA strain Sa212c = test: as above; type: cell-based, Staphylococcus aureus; details: Staphylococcus aureus; multi-resistant MRSA strain Sa212c; read-out: MIC
Procedure, shortened: as §3

MRSA strain Sa220c = test: as above; type: cell-based, Staphylococcus aureus; details: Staphylococcus aureus; multi-resistant MRSA strain Sa220c; read-out: MIC
Procedure, shortened: as §3

MRSA strain Sa224c = test: as above; type: cell-based, Staphylococcus aureus; details: Staphylococcus aureus; multi-resistant MRSA strain Sa224c; read-out: MIC
Procedure, shortened: as §3

MRSA strain Sa228c = test: as above; type: cell-based, Staphylococcus aureus; details: Staphylococcus aureus; multi-resistant MRSA strain Sa228c; read-out: MIC
Procedure, shortened: as §3

MRSA strain Sa234c = test: as above; type: cell-based, Staphylococcus aureus; details: Staphylococcus aureus; multi-resistant MRSA strain Sa234c; read-out: MIC
Procedure, shortened: as §3

MRSA strain Sa248c = test: as above; type: cell-based, Staphylococcus aureus; details: Staphylococcus aureus; multi-resistant MRSA strain Sa248c; read-out: MIC
Procedure, shortened: as §3

MRSA strain Sa249c = test: as above; type: cell-based, Staphylococcus aureus; details: Staphylococcus aureus; multi-resistant MRSA strain Sa249c; read-out: MIC
Procedure, shortened: as §3

MRSA strain Sa253c = test: as above; type: cell-based, Staphylococcus aureus; details: Staphylococcus aureus; multi-resistant MRSA strain Sa253c; read-out: MIC
Procedure, shortened: as §3

E. coli MC4100 = test: MIC broth microdilution (NCCLS); type: cell-based; details: Escherichia coli; E. coli MC4100, pathotype Reference
Procedure: as §2

[3] = test system: E. coli ATCC 35150 (O157:H7); test: MIC broth microdilution, E. coli strains; type: cell-based; details: Escherichia coli, ATCC35150
Procedure: as §2
(§4) Finally, compounds were also tested against populations of various clinical strains (antibiotic resistant strain panel, TABLE 1).

E. coli Ec022c (EIEC) = test: MIC broth microdilution, E. coli strains; type: cell-based; details: Escherichia coli, pathotype EIEC
Procedure: as §2, §4

E. coli Ec027c (EIEC) = test: MIC broth microdilution, E. coli strains; type: cell-based; details: Escherichia coli, pathotype EIEC
Procedure: as §2, §4

E. coli Ec117c (EIEC) = test: MIC broth microdilution, E. coli strains; type: cell-based; details: Escherichia coli, pathotype EIEC
Procedure: as §2, §4

E. coli Ec118c (EIEC) = test: MIC broth microdilution, E. coli strains; type: cell-based; details: Escherichia coli, pathotype EIEC
Procedure: as §2, §4

E. coli Ec119c (EIEC) = test: MIC broth microdilution, E. coli strains; type: cell-based; details: Escherichia coli, pathotype EIEC
Procedure: as §2, §4

[4] = test system: E. coli d25-ALR-pen14 (O157:H7); test: MIC broth microdilution, E. coli strains; type: cell-based; details: Escherichia coli
Procedure: as §2, §4

[5] = test system: E. coli d4-OLR-pen10 (O157:H7); test: MIC broth microdilution, E. coli strains; type: cell-based; details: Escherichia coli
Procedure: as §2, §4

[6] = Enterococcus faecalis, ATCC29212, read-out: MIC

SMILES | MIC [1] [µg/mL] | MIC [2] [µg/mL] | MIC (E. faecalis ATCC 29212; [6]) [µg/mL] | MIC (E. faecium ATCC 35667) [µg/mL] | MIC (S. typhimurium ATCC14028) [µg/mL] | MIC (MRSA strain Sa211c) [µg/mL] | MIC (MRSA strain Sa212c) [µg/mL] | MIC (MRSA strain Sa220c) [µg/mL] | MIC (MRSA strain Sa224c) [µg/mL] | MIC (MRSA strain Sa228c) [µg/mL] | MIC (MRSA strain Sa234c) [µg/mL] | MIC (MRSA strain Sa248c) [µg/mL] | MIC (MRSA strain Sa249c) [µg/mL] | MIC (MRSA strain Sa253c) [µg/mL] | MIC (E. coli MC4100) [µg/mL] | MIC [3] [µg/mL] | MIC (E. coli Ec022c (EIEC)) [µg/mL] | MIC (E. coli Ec027c (EIEC)) [µg/mL] | MIC (E. coli Ec117c (EIEC)) [µg/mL] | MIC (E. coli Ec118c (EIEC)) [µg/mL] | also measured
O=[N+]([O-])c1ccc(C=Cc2nc(Nc3ccc(O)cc3)c3cc(F)ccc3n2)o1 [Compound V, 6-fluoro-2-[2-(5-nitro-2-furyl)vinyl]-4-(p-hydroxyanilino)-quinazoline] | 0.03 (≈ 0.0765 µM) | 0.015 to 0.03 (≈ 0.0382 to 0.0765 µM) | 0.03 (≈ 0.0765 µM) | 0.06 (≈ 0.153 µM) | 1 (≈ 2.55 µM) | ≤ 0.06 | 0.125 (≈ 0.319 µM) | ≤ 0.06 | ≤ 0.06 | ≤ 0.06 | ≤ 0.06 | ≤ 0.06 | ≤ 0.06 | ≤ 0.06 | 1 (≈ 2.55 µM) | 1 (≈ 2.55 µM) | 1 (≈ 2.55 µM) | 1 (≈ 2.55 µM) | 1 (≈ 2.55 µM) | 1 (≈ 2.55 µM) | MIC (E. faecalis ATCC 29212; listed as Example I compound V): 0.03 µg/mL (≈ 0.0765 µM); MIC (E. coli Ec119c (EIEC)): 2 µg/mL (≈ 5.1 µM); MIC [4]: 1 µg/mL (≈ 2.55 µM); MIC [5]: 1 µg/mL (≈ 2.55 µM)
O=C1CN(/N=C/c2ccc([N+](=O)[O-])o2)C(=O)N1 [Nitrofurantoin] | 16 (≈ 67.2 µM) | 8 (≈ 33.6 µM) | 8 to 16 (≈ 33.6 to 67.2 µM) | 64 (≈ 269 µM) | 32 (≈ 134 µM) | 16 to 32 (≈ 67.2 to 134 µM) | 32 (≈ 134 µM) | 16 (≈ 67.2 µM) | 16 (≈ 67.2 µM) | 16 to 32 (≈ 67.2 to 134 µM) | 16 to 32 (≈ 67.2 to 134 µM) | 16 (≈ 67.2 µM) | 16 (≈ 67.2 µM) | 16 (≈ 67.2 µM) | 8 to 16 (≈ 33.6 to 67.2 µM) | 2 (≈ 8.4 µM) | 16 (≈ 67.2 µM) | 16 (≈ 67.2 µM) | 8 to 16 (≈ 33.6 to 67.2 µM) | 16 (≈ 67.2 µM) | MIC (E. coli Ec119c (EIEC)): 16 µg/mL (≈ 67.2 µM); MIC [4]: 16 µg/mL (≈ 67.2 µM); MIC [5]: 16 µg/mL (≈ 67.2 µM)
